Key:
[1] = Volatile organic content (VOC) of the neat amine, modified EPA Method 24; type: physicochemical; conditions: for VOC / Volatility by the modified EPA Test Method 24: neat amine; for VOC: 1 h at 105-110° C., percent weight loss
Experimental: Volatile Organic Content (VOC). VOC is measured following EPA Method 24. The amines are weighed in a pan and kept in an oven for 1 h at 105-110° C. The percent weight loss is reported as the VOC, corrected for the water content in the sample which can be measured by Karl Fisher Titration.

[2] = pKa of the neat neutralizer by titration with hydrochloric acid; type: physicochemical; conditions: neat amine; for pKa: titration; for pK1: first pKa by titration; for pK2: second pKa by titration
Experimental: pKa. pKa is measured by titration with a hydrochloric acid titrant solution, using an automated titrator that monitors pH with a combination electrode. The titrator plots pH vs. volume of titrant added, and first determines the titration endpoint(s) of each amine as the volume of titrant added at the inflection point(s) of the curve. The titrator reports the amine pKa value as the pH value at which one-half of the endpoint titrant volume has been delivered, or in the case of multiple endpoints, multiple pKa values are determined using the midpoints between titration endpoints. The inventive amines tested in this example each have two pKa values, due to the two different amine groups in each compound's respective molecular structure.

CC(C)(N)CNC(CO)(CO)CO [2-(2-amino-2-methylpropylamino)-2-(hydroxymethyl)propane-1,3-diol]
VOC contribution [1]: 3.9%

CCC(N)(CO)CO [AEPD, 2-Amino-2-ethyl-1,3-propane-diol, reference compound]
VOC [1]: 19%
pKa [2]: 8.8

CC(C)(N)CO [AMP, 2-Amino-2-methyl-1-propanol, reference compound]
VOC contribution [1]: 100%
VOC [1]: 100%
pKa [2]: 9.7

CCCCN(CCO)CCO [NBDA, N-Butyl-diethanolamine, reference compound]
VOC [1]: 21%
pKa [2]: 9

NC1(CNC(CO)(CO)CO)CCCCC1 [TA-ACyHM, 2-((1-aminocyclohexyl)methylamino)-2-(hydroxymethyl)propane-1,3-diol]
VOC contribution [1]: essentially zero VOC contribution
Volatility by the modified EPA Test Method 24 [1]: 3.8%
VOC [1]: 3.8%
pK1 [2]: 9.7
pK1 ([2]; listed as TA-AcyHM): pK1 9.7
pK2 [2]: 4.5
pK2 ([2]; listed as TA-AcyHM): pK2 4.5

CC(C)(N)CNC(CO)(CO)CO [TA-AMP, 2-(2-Amino-2-methylpropylamino)-2-(hydroxymethyl)propane-1,3-diol]
Volatility by the modified EPA Test Method 24 [1]: 3.9%
VOC [1]: 3.9%

— patent US7939589B2, “Polyhydroxy-diamines as low odor, low VOC multi-functional additives for paints and coatings” (Angus Chemical Company, priority 2009, dated 2011)
